Several values for one entry are separate records, joined by “and”; a condition that tells them apart may be missing. Equal values may be shown once. Where a name gives a salt, the structure may show the parent alone. Read-outs that look alike come from different tables or passages of the source. One block for each molecule: values may come before it.
Experiments:
[1] = tested on: NCI-28H cells; experiment: Example 22: cytotoxicity (MTS) assay, NCI-28H cells treated with carboplatin, mitomycin, gemcitabine, talc alone, talc bound to each drug; conditions: for Average absorbance reading: cells + drug, gemcitabine: 490 nm, Table 79; for Average absorbance reading: cells + drug, gemcitabine / % survival cells: cells + drug only / % survival from untreated cells: cells + drug, carboplatin / Average reading: cells + drug, carboplatin: NCI-28H cells; for % survival cells: cells + drug only: Table 80; for Average reading: cells + drug, carboplatin: absorbance 490 nm
[2] = Example 1: binding of Anti-Avidin FITC and Biotin Rhodamine to talc, fluorescence microscopy; conditions: 30 mg talc; FITC and Rhodamine filters
Text: This combinant nanoparticle was observed under microscopy for efficiency and efficacy. 1. […] 4. […] 5. […] 3. […] 4. […] 7. […] PBS+0.05% Tween20). 9. Analyze under microscope using FITC filter and Rhodamine filter.

[3] = Example 25: non-specific binding of Biotin-Rhodamine to talc after washing with buffers of different pH, fluorescent assay 496/520 nm
Experimental: Plan: incubate talc with Biotin Rhodamine. Make washings using different pH buffers: PBS, TBS (pH 8.0), Citrate buffer (pH 4.8). Run fluorescent assay. 1. […] Label tubes as #1, #2, #3, #4. 2. Add to each tube 500 μL 1×PBS. 3. […] 4. Mix well, incubate all tubes for 1 hr at 4° C., rotator. Protect from light. 5. […] (Centrifuge speed −3200 rpm for 3 min) 7. Add to all tubes 200 μL PBS, mix well. 8. […] 9. Run fluorescent assay using settings excitation/emission as 496 nm/520 nm.

[4] = Example 9: binding of bleomycin to talc, fluorescent microscopy (DAPI filter); conditions: 50 mg talc, 1 or 100 μg/mL bleomycin
Experimental: 1. Reconstitute bleomycin by adding 100 μL of water to 1 mg of bleomycin. Get the concentration to 10 mg/mL and mix, keeping the drug at 4° C.
9. Incubate overnight at 4° C., constantly mixing it.
3. Wash tubes 3× with 1 mL of water.
4. After last wash, complete, remove the water and resuspend the pellet in Vectashield mounting medium for fluorescence.
6. Check slides under fluorescent microscope under DAPI filter.

[5] = flow cytometry, after multiple PBS washes
[6] = tested on: NCI-28H cells; conditions: 72 hrs
[7] = tested on: NCI-28H cells; experiment: Example 21: cytotoxicity (MTS) assay, NCI-28H cells treated with doxorubicin, cisplatin, paclitaxel, talc alone, talc bound to each drug; type: cell-based; conditions: for AVERAGE reading: cells + DOX: NCI-28H, 72 hrs; for Average reading: cells + cisplatin: absorbance 490 nm; for Average reading: cells + cisplatin / % survival from untreated cells (cells + cisplatin): NCI-28H cells
[8] = Example 2: Avidin and Avidin-Rhodamine binding to talc after PBS and 0.2% EDTA washes, fluorescent microscope; conditions: 100 mg talc; 3x PBS, 3x 0.2% EDTA washes
Experimental: The resulting mixtures were then washed with PBS and then washed with 0.2% EDTA.
3. Mix 1 mL of 100 μM of Avidin with 500 μL of 30.3 μM of Avidin Rhodamine (keep lights off).
4. […] Mix well to bring the dry talc powder to evenly distributed reaction solution.
8. Place tubes on the rotator and incubate overnight at 4° C.
5. Continue to wash all “b” labeled tubes with 0.2% EDTA. Wash 3× in 0.5 mL EDTA.
7. View slides under fluorescent microscope.

Molecule: Nc1ccn([C@@H]2O[C@H](CO)[C@@H](O)C2(F)F)c(=O)n1 [gemcitabine, Gemcitabine, reference compound]
- cytotoxicity to NCI-28H cells, conclusion [1]: clear cytotoxic effect
- Average absorbance reading: cells + drug, gemcitabine ([1]; Gemcitabine 0.0026 uM): 2.034
- % survival cells: cells + drug only ([1]; Gemcitabine 0.0026 uM): 114.61%
- Average absorbance reading: cells + drug, gemcitabine ([1]; Gemcitabine 0.013 uM): 1.914
- % survival cells: cells + drug only ([1]; Gemcitabine 0.013 uM): 107.85%
- Average absorbance reading: cells + drug, gemcitabine ([1]; Gemcitabine 0.064 uM): 1.43
- % survival cells: cells + drug only ([1]; Gemcitabine 0.064 uM): 80.60%
- Average absorbance reading: cells + drug, gemcitabine ([1]; Gemcitabine 8 uM): 1.004
- % survival cells: cells + drug only ([1]; Gemcitabine 8 uM): 56.58%
- Average absorbance reading: cells + drug, gemcitabine ([1]; Gemcitabine 40 uM): 1.0663
- % survival cells: cells + drug only ([1]; Gemcitabine 40 uM): 60.09%
- Average absorbance reading: cells + drug, gemcitabine ([1]; Gemcitabine 200 uM): 0.9352
- % survival cells: cells + drug only ([1]; Gemcitabine 200 uM): 52.70%

- binding to talc, microscopy [2]: binding to talc
- effect of pH of washing buffers on binding to talc ([3]; pH 4.8-8.0): pH does not affect the binding
- Average fluorescent signal (Rhodamine 110) ([3]; talc/Biotin washed with Citrate buffer, pH 4.8): 14027.61
- Average fluorescent signal (Rhodamine 110) ([3]; talc/Biotin washed with PBS): 13760.41
- Average fluorescent signal (Rhodamine 110) ([3]; talc/Biotin washed with TBS, pH 8.0): 12868.68
Molecule: Biotin Rhodamine 110

Molecule: Bleomycin sulfate
- fluorescent imaging of talc incubated with bleomycin [4]: no difference in fluorescent imaging between negative control and talc incubated with bleomycin
- binding of bleomycin to talc [5]: binds to talc and remains on surface of talc even following multiple PBS washes
- % survival NCI-28H cells after treatment with BLEOMYCIN ([6]; Bleomycin 0.004 ug/ml): 92.41%
- % survival NCI-28H cells after treatment with BLEOMYCIN ([6]; Bleomycin 0.015 ug/ml): 88.25%
- % survival NCI-28H cells after treatment with BLEOMYCIN ([6]; Bleomycin 0.06 ug/ml): 93.38%
- % survival NCI-28H cells after treatment with BLEOMYCIN ([6]; Bleomycin 0.24 ug/ml): 91.86%
- % survival NCI-28H cells after treatment with BLEOMYCIN ([6]; Bleomycin 0.97 ug/ml): 86.19%
- % survival NCI-28H cells after treatment with BLEOMYCIN ([6]; Bleomycin 3.9 ug/ml): 71.05%
- % survival NCI-28H cells after treatment with BLEOMYCIN ([6]; Bleomycin 15.6 ug/ml): 74.60%
- % survival NCI-28H cells after treatment with BLEOMYCIN ([6]; Bleomycin 62.5 ug/ml): 68.76%
- % survival NCI-28H cells after treatment with BLEOMYCIN ([6]; Bleomycin 250 ug/ml): 47.13%
- % survival NCI-28H cells after treatment with BLEOMYCIN ([6]; Bleomycin 1000 ug/ml): 24.92%

Molecule: COc1cccc2c1C(=O)c1c(O)c3c(c(O)c1C2=O)C[C@@](O)(C(=O)CO)C[C@@H]3O[C@H]1C[C@H](N)[C@H](O)[C@H](C)O1 [DOX, Doxorubicin Hydrochloride]
- AVERAGE reading: cells + DOX ([7]; DOX 0.2 μM): 0.89
- AVERAGE reading: cells + DOX ([7]; DOX 1 μM): 0.67
- AVERAGE reading: cells + DOX ([7]; DOX 5 μM): 0.63

Molecule: N.N.[Cl][Pt][Cl] [cisplatin, Cisplatin]
- Average reading: cells + cisplatin ([7]; Cisplatin 0.0013 μM): 1.37
- Average reading: cells + cisplatin ([7]; Cisplatin 0.0064 μM): 1.19
- Average reading: cells + cisplatin ([7]; Cisplatin 0.8 μM): 1.23
- Average reading: cells + cisplatin ([7]; Cisplatin 4 μM): 1.18
- Average reading: cells + cisplatin ([7]; Cisplatin 20 μM): 0.48
- Average reading: cells + cisplatin ([7]; Cisplatin 100 μM): 0.59
- % survival from untreated cells (cells + cisplatin) ([7]; cisplatin 0.0013 (μM per Table 63)): 91.07%
- % survival from untreated cells (cells + cisplatin) ([7]; cisplatin 0.0064 (μM per Table 63)): 79.21%
- % survival from untreated cells (cells + cisplatin) ([7]; cisplatin 0.032 (μM per Table 63)): 76.66%
- % survival from untreated cells (cells + cisplatin) ([7]; cisplatin 0.16 (μM per Table 63)): 79.74%
- % survival from untreated cells (cells + cisplatin) ([7]; cisplatin 0.8 (μM per Table 63)): 82.09%
- % survival from untreated cells (cells + cisplatin) ([7]; cisplatin 4 (μM per Table 63)): 78.41%
- % survival from untreated cells (cells + cisplatin) ([7]; cisplatin 20 (μM per Table 63)): 31.99%
- % survival from untreated cells (cells + cisplatin) ([7]; cisplatin 100 (μM per Table 63)): 39.35%

Molecule: Avidin-Rhodamine: Rhodamine Conjugated Avidin from Rockland [reference compound]
- binding to talc after washing [8]: remained bound to talc despite multiple washes

Molecule: N.N.O=C([O-])C1(C(=O)[O-])CCC1.[Pt+2] [carboplatin]
- % survival from untreated cells: cells + drug, carboplatin ([1]; carboplatin 0.006 μM): 90.84% and 94.28%
- Average reading: cells + drug, carboplatin ([1]; carboplatin 0.006 μM): 1.504
- % survival from untreated cells: cells + drug, carboplatin ([1]; carboplatin 0.8 μM): 85.98% and 87.53%
- Average reading: cells + drug, carboplatin ([1]; carboplatin 0.8 μM): 1.4238
- % survival from untreated cells: cells + drug, carboplatin ([1]; carboplatin 4 μM): 96.93% and 93.62%
- Average reading: cells + drug, carboplatin ([1]; carboplatin 4 μM): 1.605
- % survival from untreated cells: cells + drug, carboplatin ([1]; carboplatin 20 μM): 104.81% and 99.20%
- Average reading: cells + drug, carboplatin ([1]; carboplatin 20 μM): 1.7355
- % survival from untreated cells: cells + drug, carboplatin ([1]; carboplatin 100 μM): 83.82% and 79.53%
- Average reading: cells + drug, carboplatin ([1]; carboplatin 100 μM): 1.388
- % survival from untreated cells: cells + drug, carboplatin ([1]; carboplatin 500 μM): 37.38% and 35.14%
- Average reading: cells + drug, carboplatin ([1]; carboplatin 500 μM): 0.6189

Source: US20160331853A1, “COMPOSITIONS FOR RADIOTHERAPY AND USES THEREOF” (The Trustees of Columbia University in the City of New York, priority 2014, published 2016)
